Laboratory results published in PMC10686834, “Targeting myeloid chemotaxis to reverse prostate cancer therapy resistance” (Nature, 2023).

System: patients with ARSI-resistant mCRPC
Assay: Phase 1 trial of AZD5069 plus enzalutamide: safety and tolerability (DLTs, treatment-emergent adverse events, NCI-CTCAE v.4.0)
Format: in vivo
Description: The primary trial objective was to evaluate the safety and tolerability of the combination. Key secondary objectives were to evaluate pharmacokinetic–pharmacodynamic parameters and antitumour activity.
Eligible patients were consenting patients aged ≥18 years, who had mCRPC with histologically confirmed prostate adenocarcinoma histology, documented cancer progression at the time of trial entry by Response Evaluation Criteria in Solid Tumors (v.1.1) and/or Prostate Cancer Working Group 2 criteria, and PSA of ≥10 ng ml^−1 at screening.
The dose-escalation phase used a rule-based 3 + 3 design, with an initial three patients enrolled per dose level. If none of the first three patients experienced a DLT, dose escalation proceeded to the next dose level. […] If fewer than two of six patients at any dose level experienced a DLT, dose escalation continued to the next level. If at least two out of up to six patients experienced a DLT, dose escalation stopped and this dose level was defined as the maximum administered dose. Once this maximum administered dose was defined, the maximum tolerated dose (MTD) was confirmed at the dose level below the maximum administered dose. At least six evaluable patients were required to establish the MTD at a specific dose level. […] Intra-patient dose escalation was not permitted. Start of dosing between the first and second patient enrolled to each dose level was staggered by 1 week. Once the MTD was determined in the phase 1 study, the recommended phase 2 dose was determined on the basis of available data, including but not limited to safety and response.
DLTs were defined as described in the study protocol. […] Prophylaxis with growth factor support or antipyretics were not permitted. Investigators determined whether an adverse event was related to the study drugs. If a patient experienced clinically significant and/or unacceptable toxicity, including a DLT, not attributable to the disease or disease-related processes, dosing was interrupted or the dose was reduced and supportive therapy was administered as required.

C[C@@H](Oc1cc(NS(=O)(=O)N2CCC2)nc(SCc2cccc(F)c2F)n1)[C@@H](O)CO [AZD5069]
TEAE Oedema genital, All G (AZD5069 320 mg BD (n=7)): 0 (0) n (%) | TEAE Oedema genital, G≥3 (AZD5069 320 mg BD (n=7)): 0 (0) n (%) | TEAE Platelet decreased, All G (AZD5069 320 mg BD (n=7)): 0 (0) n (%) | TEAE Platelet decreased, G≥3 (AZD5069 320 mg BD (n=7)): 0 (0) n (%) | TEAE Pruritus, All G (AZD5069 320 mg BD (n=7)): 0 (0) n (%) | TEAE Pruritus, G≥3 (AZD5069 320 mg BD (n=7)): 0 (0) n (%) | TEAE Skin infection, All G (AZD5069 320 mg BD (n=7)): 0 (0) n (%) | TEAE Skin infection, G≥3 (AZD5069 320 mg BD (n=7)): 0 (0) n (%) | TEAE Vomiting, All G (AZD5069 320 mg BD (n=7)): 0 (0) n (%) | TEAE Vomiting, G≥3 (AZD5069 320 mg BD (n=7)): 0 (0) n (%) | TEAE White blood cell decreased, All G (AZD5069 320 mg BD (n=7)): 1 (14) n (%) | TEAE White blood cell decreased, G≥3 (AZD5069 320 mg BD (n=7)): 0 (0) n (%) | TEAE Anemia, All G (All patients (n=23)): 4 (17) n (%) | TEAE Anemia, G≥3 (All patients (n=23)): 1 (4) n (%) | TEAE Aphasia, All G (All patients (n=23)): 1 (4) n (%) | TEAE Aphasia, G≥3 (All patients (n=23)): 0 (0) n (%) | TEAE Arthralgia, All G (All patients (n=23)): 1 (4) n (%) | TEAE Arthralgia, G≥3 (All patients (n=23)): 0 (0) n (%) | TEAE Aspartate aminotransferase increased, All G (All patients (n=23)): 1 (4) n (%) | TEAE Aspartate aminotransferase increased, G≥3 (All patients (n=23)): 0 (0) n (%) | TEAE Constipation, All G (All patients (n=23)): 2 (9) n (%) | TEAE Constipation, G≥3 (All patients (n=23)): 0 (0) n (%) | TEAE Death, All G (All patients (n=23)): 1 (4) n (%) | TEAE Death, G≥3 (All patients (n=23)): 1 (4) n (%) | TEAE Decreased appetite, All G (All patients (n=23)): 1 (4) n (%) | TEAE Decreased appetite, G≥3 (All patients (n=23)): 0 (0) n (%) | TEAE Diarrhoea, All G (All patients (n=23)): 1 (4) n (%) | TEAE Diarrhoea, G≥3 (All patients (n=23)): 1 (4) n (%) | TEAE Dry skin, All G (All patients (n=23)): 1 (4) n (%) | TEAE Dry skin, G≥3 (All patients (n=23)): 0 (0) n (%) | TEAE Fatigue, All G (All patients (n=23)): 7 (30) n (%) | TEAE Fatigue, G≥3 (All patients (n=23)): 0 (0) n (%) | TEAE Headache, All G (All patients (n=23)): 3 (13) n (%) | TEAE Headache, G≥3 (All patients (n=23)): 0 (0) n (%) | TEAE Hypophosphataemia, All G (All patients (n=23)): 1 (4) n (%) | TEAE Hypophosphataemia, G≥3 (All patients (n=23)): 0 (0) n (%) | TEAE Nausea, All G (All patients (n=23)): 5 (22) n (%) | TEAE Nausea, G≥3 (All patients (n=23)): 0 (0) n (%) | TEAE Neutrophil decreased, All G (All patients (n=23)): 19 (83) n (%) | TEAE Neutrophil decreased, G≥3 (All patients (n=23)): 11 (48) n (%) | TEAE Oedema genital, All G (All patients (n=23)): 1 (4) n (%) | TEAE Oedema genital, G≥3 (All patients (n=23)): 0 (0) n (%) | TEAE Platelet decreased, All G (All patients (n=23)): 2 (9) n (%) | TEAE Platelet decreased, G≥3 (All patients (n=23)): 0 (0) n (%) | TEAE Pruritus, All G (All patients (n=23)): 1 (4) n (%) | TEAE Pruritus, G≥3 (All patients (n=23)): 0 (0) n (%) | TEAE Skin infection, All G (All patients (n=23)): 1 (4) n (%) | TEAE Skin infection, G≥3 (All patients (n=23)): 0 (0) n (%) | TEAE Vomiting, All G (All patients (n=23)): 1 (4) n (%) | TEAE Vomiting, G≥3 (All patients (n=23)): 0 (0) n (%) | TEAE White blood cell decreased, All G (All patients (n=23)): 3 (13) n (%) | TEAE White blood cell decreased, G≥3 (All patients (n=23)): 0 (0) n (%) | permanent treatment discontinuation due to treatment-emergent adverse events (all dose levels): no permanent treatment discontinuation | treatment-emergent anaemia, all grades (all dose levels, 23 patients): 17% | treatment-emergent anaemia, grade ≥ 3 (all dose levels, 23 patients): 4% | treatment-emergent constipation, all grades (all dose levels, 23 patients): 9% | treatment-emergent fatigue, all grades (all dose levels, 23 patients): 30% | treatment-emergent headache, all grades (all dose levels, 23 patients): 13% | treatment-emergent leukopaenia, all grades (all dose levels, 23 patients): 13% | treatment-emergent nausea, all grades (all dose levels, 23 patients): 22% | treatment-emergent neutropaenia, all grades (all dose levels, 23 patients): 83% | treatment-emergent neutropaenia, grade ≥ 3 (all dose levels, 23 patients): 48% | treatment-emergent thrombocytopaenia, all grades (all dose levels, 23 patients): 9%
